As a reminder, the MIC is the lowest concentration that inhibits growth of the organism.

In brackets after ≈: the same amount, converted by molar mass. Like-named read-outs stand apart in the source and are kept apart here. Bounds are passed on as bounds.

Common to all, as to type: cell-based
One test relates to Psdm. Bonn. Description: MIC by serial dilution on Iso-Sensitest agar. On the procedure:
(§1) The minimum inhibitory concentrations (MICs) were determined by serial dilution tests on Iso-Sensitest agar (Oxoid). For each test substance, a number of agar plates were prepared which contained decreasing concentrations of the active compound. The agar plates were inoculates using a multipoint inoculator (Denley). For inoculation, overnight cultures of the pathogenic organisms were used which had previously been diluted such that each inoculation point contained about 10^4 colony-forming particles. The inoculated agar plates were incubated at 37° C., and the microorganism growth was read off after about 20 hours. The MICs (μg/ml) indicates the lowest active compound concentration at which no growth could be detected using the naked eye.

The subject of another test is Klebs. 57 USA. Description: MIC by serial dilution on Iso-Sensitest agar. On the procedure:
as §1

In a further test the test system is Staph. 9TV. Kind of test: MIC by serial dilution on Iso-Sensitest agar. As to the method:
as §1

Another test concerns E. coli Neumann. Description: MIC by serial dilution on Iso-Sensitest agar. As to conditions: Escherichia coli. On the procedure:
as §1

Another test concerns Staph. 133. Description: MIC by serial dilution on Iso-Sensitest agar. The following applies: 37° C., about 20 hours. On the procedure: as §1
The test system of the next test is Staph. 25701. Kind of test: MIC by serial dilution on Iso-Sensitest agar. The following applies: 37° C., about 20 hours. As to the method:
as §1

A further test deals with Staph. 48N. Kind of test: MIC by serial dilution on Iso-Sensitest agar. As to conditions: 37° C., about 20 hours. As to the method:
as §1

The test system of test [1] is Mycobacterium smegmatis DSM 43465. Description: MIC for rapidly growing mycobacteria by broth microdilution. The following applies: Mycolicibacterium smegmatis, DSM43465. On the procedure: (§2) For rapidly growing mycobacteria, the MIC determination was carried out following the method of broth microdilution described by Swenson [cf. J. M. Swenson, C. Thornberry, U. A. Silcox, Rapidly growing mycobacteria. Testing of suceptibility to 34 antimicrobial agents by broth microdilution. Antimicrobial Agents and Chemotherapy Vol. 22, 186-192 (1982)]. A deviation from this was the brain-heart extract medium treated with 0.1% by volume of Tween 80.
(§3) The mycobacterial strains used were obtained from the DSM (German Collection of Microorganisms, Braunschweig). They were incubated at 37° C. in a humid chamber.
(§4) The MICs were read off after 2-4 days when the preparation-free controls had become cloudy as a result of growth.
(In general: Dilution methods test growth across graded concentrations, often in twofold steps.)

The test system of test [2] is Mycobacterium smegmatis DSM 43061. The test is described as above. The following applies: Mycolicibacterium smegmatis, DSM43061. On the procedure: as §2, §3, §4
Setting [3] is: Staph. 9TV, 37° C., about 20 hours, read-out: MIC.
The mark [4] stands for this setting: DSM 43465, brain-heart extract medium with 0.1% Tween 80, 37° C., 2-4 days, read-out: MIC.
Where [5] appears, read: DSM 43061, brain-heart extract medium with 0.1% Tween 80, 37° C., 2-4 days, read-out: MIC.
Setting [6] is: Psdm. Bonn, 37° C., about 20 hours, read-out: MIC.
Where [7] appears, read: Klebs. 57 USA, 37° C., about 20 hours, read-out: MIC.
Where [8] appears, read: E. coli Neumann, 37° C., about 20 hours, read-out: MIC.

Turning to `Cn1c(=O)oc2cc(N3CC(CNC(=O)C4CC4)OC3=O)cnc21` (racemic) [Example 11], the minimum inhibitory concentration (MIC) was above 64 µg/mL against Psdm. Bonn (20 h); above 64 µg/mL against Klebs. 57 USA (20 h); 4 µg/mL (≈ 12 µM) in the test on Staph. 9TV (setting [3]); above 64 µg/mL in the test on E. coli Neumann (20 h); 8 µg/mL (≈ 24.1 µM) in the test with Staph. 133; 8 µg/mL (≈ 24.1 µM) in the test on Staph. 25701. Further, the MIC in the test on Staph. 48N is 8 µg/mL (≈ 24.1 µM); in test [1] (setting [4]), 4 µg/mL (≈ 12 µM); in test [2] (setting [5]), 8 µg/mL (≈ 24.1 µM).

Take `CCC(=O)NCC1CN(c2cnc3c(c2)oc(=O)n3C)C(=O)O1` (racemic) [Example 12]: the minimal inhibitory concentration (MIC) is above 64 µg/mL with Psdm. Bonn (setting [6]); above 64 µg/mL with Klebs. 57 USA (setting [7]); 4 µg/mL (≈ 12.5 µM) in the test on Staph. 9TV (20 h); above 64 µg/mL in the test with E. coli Neumann (setting [8]); 8 µg/mL (≈ 25 µM) against Staph. 133; 8 µg/mL (≈ 25 µM) in the test on Staph. 25701. Also, the results for the MIC (against Staph. 48N; in test [1]; in test [2]) were 8 µg/mL (≈ 25 µM), 4 µg/mL (≈ 12.5 µM) and 4 µg/mL (≈ 12.5 µM), respectively.

As for `COC(=O)NCC1CN(c2cnc3c(c2)oc(=O)n3C)C(=O)O1` (racemic) [Example 13], the minimal inhibitory concentration (MIC) was above 64 µg/mL with Psdm. Bonn (setting [6]); above 64 µg/mL in the test on Klebs. 57 USA (setting [7]); 4 µg/mL (≈ 12.4 µM) in the test on Staph. 9TV (setting [3]); above 64 µg/mL with E. coli Neumann (setting [8]); 8 µg/mL (≈ 24.8 µM) against Staph. 133; 8 µg/mL (≈ 24.8 µM) with Staph. 25701. Also, the MIC (against Staph. 48N; in test [1] (setting [4]); in test [2] (setting [5])) was 8 µg/mL (≈ 24.8 µM) each time.

As to `CC(=O)NCC1CN(c2cnc3c(c2)oc(=O)n3C)C(=O)O1` (stereo not shown) [Example 10, 5-Acetylaminomethyl-3-(3-methyloxazolo[4,5-b]-pyridin-2(3H)-on-6yl)oxazolidin-2-one], the MIC in the test on Psdm. Bonn (20 h) is above 64 µg/mL; against Klebs. 57 USA (20 h) it was above 64 µg/mL; in the test on Staph. 9TV (setting [3]), 4 µg/mL (≈ 13.1 µM); in the test with E. coli Neumann (20 h), above 64 µg/mL; with Staph. 25701, 8 µg/mL (≈ 26.1 µM); with Staph. 48N, 8 µg/mL (≈ 26.1 µM). The MIC in test [1] (setting [4]) and in test [2] (setting [5]) was 4 µg/mL (≈ 13.1 µM) throughout.

With `CC(=O)NC[C@H]1CN(c2ccc3nc(C)sc3n2)C(=O)O1` [Example 14], the MIC is above 64 µg/mL with Psdm. Bonn (setting [6]); above 64 µg/mL in the test with Klebs. 57 USA (setting [7]); 2 µg/mL (≈ 6.53 µM) in the test with Staph. 9TV (setting [3]); above 64 µg/mL in the test with E. coli Neumann (setting [8]); 4 µg/mL (≈ 13.1 µM) against Staph. 133; 4 µg/mL (≈ 13.1 µM) in the test on Staph. 25701. For the same compound, it took 8 µg/mL (≈ 26.1 µM) to inhibit growth against Staph. 48N (MIC).

On to `NNC(=O)c1ccncc1` [Isoniazide, reference compound], for which the MIC in [1] (setting [4]) was 1 µg/mL (≈ 7.29 µM); in test [2] (setting [5]) it was 4 µg/mL (≈ 29.2 µM).

In the case of `[H]/N=C(/N)N[C@H]1[C@H](O)[C@@H](O)[C@H](O[C@@H]2O[C@@H](C)[C@](O)(C=O)[C@H]2O[C@@H]2O[C@@H](CO)[C@H](O)[C@@H](O)[C@@H]2NC)[C@@H](N/C(N)=N\[H])[C@@H]1O` [Streptomycin, reference compound], the minimum inhibitory concentration (MIC) in [1] and in test [2] was 4 µg/mL (≈ 6.88 µM) in each case.

The values above are taken from patent US5869659A, “Heteroatom-containing cyclopentanopyridyl-oxazolidinones” (Bayer Aktiengesellschaft, priority 1996, dated 1999).
